Counter-ions that a name gives are not always drawn.
Tests used:
HCT116 = test: Inhibition of cell growth, MTT assay, HCT116; assay type: cell-based, human; settings: Homo sapiens, HCT-116
Procedure, shortened: (§1)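 Cells rested 4 h after plating, then exposed to graded compound concentrations in 0.5% (v/v) DMSO for four to six days (cell-type dependent) at 37° C, 5% CO2. Viability was read by MTT (0.2 mg/mL final, 4 h at 37° C), with DMSO-solubilized formazan measured at 540 nm.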

COLO-205 = test: Inhibition of cell growth, MTT assay, COLO-205; assay type: cell-based; settings: Homo sapiens; COLO-205, MTT assay
Method: (§2) The water-insoluble purple formazan product was then detected spectrophotometrically. […] Plates were incubated for four hours before addition of inhibitor compounds. Different concentrations of inhibitor compounds were added in 0.5% (v/v) dimethylsulfoxide (15 μL/well), and cells were incubated at 37° C. (5% CO2) for four to six days (depending on cell type). At the end of the incubation, MTT was added to a final concentration of 0.2 mg/mL, and cells were incubated for 4 hours more at 37° C. After centrifugation of the plates and removal of medium, the absorbance of the formazan (solubilized in dimethylsulfoxide) was measured at 540 nm.

[1] = tested on: phosphorylation of the retinoblastoma protein (pRb) in HCT-116 cells; test: pRb immunoblotting (anti-Rb antibody); assay type: cell-based, human; settings: five micromolar of each compound for 12 hours, western blot
Method: (§3) The ability of compounds to inhibit phosphorylation of the retinoblastoma protein (pRb) was assessed by western blot analysis. An anti-Rb antibody was used to measure the conversion of hyper-phosphorylated pRb to hypo-phosphorylated pRb.
(§4) Human colon tumor cells (HCT-116 cells; 5×10^6) were plated on […] dishes and allowed to grow overnight. Five micromolar of each compound was added for 12 hours. The cells were then collected and centrifuged. The cell pellets were lysed by the addition of 100 μL lysis buffer (50 mM HEPES (pH 7.0), 250 mM NaCl, 5 mM ethylenediaminetetraacetic acid, 0.1% Nonidet P-40, 1 mM dithiothreitol, 2 mM sodium pyrophosphate, 1 mM sodium orthovanadate, 1 μg/ml aprotonin, 1 μg/ml leupeptin, 50 μg/ml phenylmethylsulfonyl fluoride). Forty micrograms of protein were separated by sodium dodecyl sulfate-polyacrylamide gel electrophoresis (SDS-PAGE) on a 6% gel. The proteins were transferred to nitrocellulose and blocked with 5% blocking buffer in Tris-buffered saline overnight. The anti-Rb antibody (Pharmingen), the anti-phospho-Rb (Ser 780) antibody (MBL), and secondary antibody were incubated for 1 hour at room temperature followed by three wash steps in 0.01% Tween-20 in Tris-buffered saline. The Rb protein was detected using chemiluminescence according to the manufacturer (Amersham).

Saos-2 = test: Inhibition of cell growth, MTT assay, Saos-2; assay type: cell-based; settings: Homo sapiens; Saos-2, MTT assay
Procedure, shortened: as §1

U2-OS = test: Inhibition of cell growth, MTT assay, U2-OS; assay type: cell-based; settings: Homo sapiens, U2OS
Procedure, shortened: as §1

CDK2/cyclin A = molecular target: T1, CDK2/cyclin A (Homo sapiens, UniProt P24941); test: Inhibition of CDK2/cyclin A retinoblastoma kinase activity; assay type: biochemical; settings: read-out: Ki CDK 2/A
T1 construct: made in house; host or cells: CDK2: insect cells (baculovirus); cyclin A: E. coli, then limited proteolysis
Procedure, shortened: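 Baculovirus-expressed CDK2 with excess proteolyzed cyclin A (or purified complex), 150 nM or 5 nM, phosphorylating an Rb fragment with 25 μM [32/33P]ATP, pH 7.4, 30° C, 20 min. Filter-captured radioactivity by phosphorimager; apparent Ki from fits to competitive or tight-binding competitive inhibition using measured ATP Km.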

[2] = molecular target: T2, complex of human CDK4 and cyclin D3 (Homo sapiens, UniProt P11802); test: Inhibition of CDK4/cyclin D retinoblastoma kinase activity (D-type cyclin is D3); assay type: biochemical; settings: superscript a: D-type cyclin is D3; apparent Ki; read-out: Ki CDK 4/D
T2 construct: made in house; host or cells: insect cells, co-infected with baculovirus
T2 sequence (P11802 whole entry): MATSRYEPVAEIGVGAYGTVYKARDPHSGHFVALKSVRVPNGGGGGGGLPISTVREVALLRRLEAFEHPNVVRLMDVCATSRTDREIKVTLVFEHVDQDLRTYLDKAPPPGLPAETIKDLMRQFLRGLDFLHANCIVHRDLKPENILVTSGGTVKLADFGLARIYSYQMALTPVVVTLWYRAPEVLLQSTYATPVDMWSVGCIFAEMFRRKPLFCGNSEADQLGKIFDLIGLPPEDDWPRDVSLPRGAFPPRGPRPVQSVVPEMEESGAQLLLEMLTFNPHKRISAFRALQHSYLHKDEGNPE
T2 sequence (P30281 whole entry partner): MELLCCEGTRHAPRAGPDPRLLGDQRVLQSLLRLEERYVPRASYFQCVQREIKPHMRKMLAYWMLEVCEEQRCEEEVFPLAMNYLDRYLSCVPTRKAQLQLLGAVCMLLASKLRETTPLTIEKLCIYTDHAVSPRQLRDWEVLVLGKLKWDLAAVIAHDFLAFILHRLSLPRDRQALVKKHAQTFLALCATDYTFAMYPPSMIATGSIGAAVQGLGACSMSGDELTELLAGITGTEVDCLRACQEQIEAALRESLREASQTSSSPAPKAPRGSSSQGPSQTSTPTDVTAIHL
Procedure, shortened: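 Radiometric assay: [32P]- or [33P]ATP phosphate incorporation into Rb substrate at 30°C for 20 min, stopped with EDTA, filter-captured and phosphorimaged.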

RXF-393 = test: Inhibition of cell growth, MTT assay, RXF-393; assay type: cell-based; settings: Homo sapiens; RXF-393, MTT assay
Method: as §2

[3] = tested on: pRb phosphorylation at serine 780 in HCT-116 cells; test: pRb immunoblotting (anti-phospho-Rb (ser780) antibody); assay type: cell-based, human; settings: five micromolar of each compound for 12 hours, western blot, anti-phospho-Rb (Ser 780) antibody
Method: as §3, §4

M14 melanoma = test: Inhibition of cell growth, MTT assay, M14 melanoma; assay type: cell-based; settings: Homo sapiens
Method: as §2

[4] = molecular target: T3, human CDK1 (cdc2) and cyclin B (Homo sapiens, UniProt P06493); test: Inhibition of CDK1(cdc2)/cyclin B histone H1 kinase activity; assay type: biochemical; settings: read-out: Ki CDK 1/B
T3 construct: purchased New England Biolabs (Beverly Mass.)
T3 sequence (P06493 whole entry): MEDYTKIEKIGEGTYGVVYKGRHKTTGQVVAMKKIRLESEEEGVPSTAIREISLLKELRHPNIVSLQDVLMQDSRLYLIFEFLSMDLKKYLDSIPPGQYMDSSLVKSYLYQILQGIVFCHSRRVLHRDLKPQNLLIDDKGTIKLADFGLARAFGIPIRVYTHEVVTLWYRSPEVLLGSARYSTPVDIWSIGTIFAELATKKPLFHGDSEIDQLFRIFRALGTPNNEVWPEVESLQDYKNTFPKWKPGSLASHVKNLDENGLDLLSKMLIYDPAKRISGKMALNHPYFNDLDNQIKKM
T3 sequence (P14635 whole entry partner): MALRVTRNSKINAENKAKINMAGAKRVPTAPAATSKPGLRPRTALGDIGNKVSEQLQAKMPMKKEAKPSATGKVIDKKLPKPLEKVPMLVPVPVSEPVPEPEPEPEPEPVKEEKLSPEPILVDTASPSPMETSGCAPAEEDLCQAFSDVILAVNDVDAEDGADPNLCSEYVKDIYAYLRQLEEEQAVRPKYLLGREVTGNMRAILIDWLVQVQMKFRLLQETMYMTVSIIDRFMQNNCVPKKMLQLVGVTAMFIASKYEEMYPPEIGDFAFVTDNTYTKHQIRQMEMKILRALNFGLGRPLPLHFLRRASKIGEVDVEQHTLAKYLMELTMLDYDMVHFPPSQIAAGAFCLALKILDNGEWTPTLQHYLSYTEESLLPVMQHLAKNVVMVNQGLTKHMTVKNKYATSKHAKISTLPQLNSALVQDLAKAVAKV
Procedure, shortened: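 CDK1/cyclin B (commercial, or CDK1/GST-cyclin B1 from co-infected insect cells) phosphorylated histone H1 with 25 μM [32/33P]ATP at pH 7.4, 30° C for 20 min, 2% DMSO. Product captured on phosphocellulose and read by phosphorimager; apparent Ki from competitive or tight-binding fits, with Km for ATP determined.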

MCF-7 = test: Inhibition of cell growth, MTT assay, MCF-7; assay type: cell-based; settings: MCF-7, MTT assay; for IC50 / IC90: Homo sapiens, MCF7; for % inhibition of growth in parentheses after >25: concentration not given
Method: as §2

MDA-MB-468 = test: Inhibition of cell growth, MTT assay, MDA-MB-468; assay type: cell-based; settings: Homo sapiens; MDA-MB-468, MTT assay
Method: as §2

| SMILES | IC50 (HCT116) [nM] | IC90 (HCT116) [nM] | IC50 (COLO-205) [nM] | IC90 (COLO-205) [nM] | Inhibits pRb phosphorylation [1] | IC50 (Saos-2) [nM] | IC90 (Saos-2) [nM] | IC50 (U2-OS) [nM] | IC90 (U2-OS) [nM] | Ki (CDK2/cyclin A) [nM] | Ki [2] [nM] | IC50 (RXF-393) [nM] | IC90 (RXF-393) [nM] | Inhibits pRb (ser 780) phosphorylation [3] | IC50 (M14 melanoma) [nM] | IC90 (M14 melanoma) [nM] | Ki [4] [nM] | IC50 (MCF-7) [nM] | IC90 (MCF-7) [nM] | IC50 (MDA-MB-468) [nM] | other results |
| --- | --- | --- | --- | --- | --- | --- | --- | --- | --- | --- | --- | --- | --- | --- | --- | --- | --- | --- | --- | --- | --- |
| Cc1ccsc1C(=O)c1sc(Nc2ccc(N3CCNCC3)cc2)nc1N [H(1), [4-Amino-2-(4-piperazin-1-yl-phenylamino)-thiazol-5-yl]-(3-methyl-thiophen-2-yl)-methanone Trihydrochloride] | 580 | 1400 | 200 | 600 | + | 730 | 1400 | 850 | 1500 | 370 | 8.2 | 460 | 880 | + | 2400 | 9000 | 681 |  |  |  |  |
| Cc1cc(C(=O)c2sc(Nc3ccc(S(N)(=O)=O)cc3)nc2N)c(C)s1 [C(50), 4-[4-Amino-5-(2,5-dimethyl-thiophene-3-carbonyl)-thiazol-2-ylamino]-benzenesulfonamide] | 610 | 1600 |  |  | + | 1300 | 2800 | 2000 | 3000 | 5.6 | 25.5 |  |  | + |  |  | 29 | 3000 | > 25000 | 480 | % inhibition of growth in parentheses after >25 (MCF-7): (88%); IC90 (MDA-MB-468): 1500 nM |
| Nc1nc(Nc2ccc(N3CCNCC3)cc2)sc1C(=O)c1c(F)cccc1F [J(2), [4-Amino-2-(4-piperazin-1-yl-phenylamino)-thiazol-5-yl]-(2,6-difluoro-phenyl)-methanone] | 300 | 730 | 900 | 2700 | + | 580 | 1300 | 1700 | 2800 | 135 | 6.4 | 550 | 1100 | + | 650 | 2000 | 405 | 480 | 1700 | 340 | IC90 (MDA-MB-468): 700 nM |
| Nc1nc(Nc2ccc(S(N)(=O)=O)cc2)sc1C(=O)c1c(F)cccc1F [C(85), 4-[4-Amino-5-(2,6-difluoro-benzoyl)-thiazol-2-ylamino]-benzenesulfonamide] | 250 | 560 | 240 | 580 | + | 280 | 670 | 1700 | 2800 | 5.7 | 13 | 1200 | 3000 | + | 710 | 2200 | 2.2 | 3900 | 13000 | 220 | IC90 (MDA-MB-468): 590 nM |
| Cc1ccsc1C(=O)c1sc(Nc2ccc(N3CCN(C)CC3)cc2)nc1N [C(87), {4-Amino-2-[4-(4-methyl-piperazin-1-yl)-phenylamino]-thiazol-5-yl}-3-methyl-thiophen-2-yl-methanone] | 950 | 2900 | 390 | 1700 | + | 2000 | 4000 | 1800 | 4000 | 607 | 9 | 1500 | 2300 | + | 1500 | 4200 | 826 |  |  |  |  |
| Cc1ccsc1C(=O)c1sc(Nc2ccc(S(N)(=O)=O)cc2)nc1N [C(48), 4-[4-Amino-5-(3-methyl-thiophene-2-carbonyl)-thiazol-2-ylamino]-benzenesulfonamide] |  | 700 | 290 | 600 | + | 420 | 750 | 1000 | 1500 | 11.1 | 14 | 800 | 1600 | + | 600 | 1800 | 15 | 2600 | > 25000 | 260 | % inhibition of growth in parentheses after >25 (MCF-7): (82%); IC90 (MDA-MB-468): 600 nM |
| CN1CCN(c2ccc(Nc3nc(N)c(C(=O)c4c(Cl)cc(C(F)(F)F)cc4Cl)s3)cc2)CC1 [C(81)] | 10000 | 20000 | > 5000 |  | + | 13000 | 22000 | 7900 | 12000 | 872 | 12.3 | > 5000 |  | + | 3800 | > 5000 | 1240 | 3900 | 16000 | 4700 | IC90 (MDA-MB-468): 9300 nM |

Reference: patent publication US6569878B1, “Substituted 4-amino-thiazol-2-yl compounds as cyclin-dependent kinase inhibitors” (Agouron Pharmaceuticals Inc., priority 1997, dated 2003)
